This is an account of results in patent US20230189805A1, “MULTI-SOLVENT INSECTICIDAL COMPOSITIONS INCLUDING SULFOXIMINE” (CLARKE MOSQUITO CONTROL PRODUCTS, INC., priority 2020, published 2023).

The test system of the data set is Culex sp. mosquitos. The data set is described as follows: Laboratory test of samples with and without surfactant against Culex sp. mosquitos. It counts as in vivo. The method, then:
Various amounts of different surfactants were evaluated to determine possible impacts on efficacy. In one set of trials, different amounts of sulfoxaflor were tested with and without a surfactant (Pluronic L92 from BASF).

Where [1] appears, read: sulfoxaflor 0.5 wt.%, surfactant (Pluronic L92) 20 wt.%.
The mark [2] stands for this setting: sulfoxaflor 0.5 wt.%, surfactant None.
The mark [3] stands for this setting: sulfoxaflor 1 wt.%, surfactant None.

`CC(c1ccc(C(F)(F)F)nc1)S(C)(=O)=NC#N` (centres unmarked) [Sulfoxaflor, sulfoxaflor]: under setting [1], the 1-hour knockdown stood at 2%, the 24 hour mortality is 64% and the 48 hour mortality is 92%. Under setting [2], this compound returned a 1-hour knockdown of 0%, a 24 hour mortality of 27%, a 48 hour mortality of 76% and a 72 hour mortality of 86%. Also, under setting [3], the 1-hour knockdown is 18%, the 24 hour mortality was determined as 62%, the 48 hour mortality worked out at 94% and the 72 hour mortality turned out to be 98%.
